# In paper PMC10761660, “Preclinical evaluation of an ^18F-labeled N^ε-acryloyllysine piperazide for covalent targeting of transglutaminase 2” (EJNMMI Radiopharmacy and Chemistry, 2024):
# Where two headings read alike, the source gives them in different places.
# Experiments:
# [1] = design: method as in Wodtke et al. [2021]; settings: ref Wodtke et al. [2021]; cited from earlier work
# [2] = Stability in blood in vitro; assay type: in vitro ADME; settings: incubation of the radiotracer in blood in vitro
# [3] = tested on: A375-hS100A4 tumor xenograft (TGase 2 +); assay: Ex vivo biodistribution in tumor-bearing mice (A375-hS100A4); design: species or system mice (Rj:NMRI-Foxn1 nu/nu)
# Experimental: (§1) For biodistribution studies in tumor-bearing mice, a number of 5 × 10^6 A375-hS100A4 or MeWo cells were resuspended in 100 µL PBS and injected subcutaneously into nude mice (Rj:NMRI-Foxn1 nu/nu). Tumor growth was monitored three times per week using caliper measurements. The injection of [^18F]7b and subsequent steps were performed as described above.
# [4] = Liver microsome assay; assay type: in vitro ADME, murine; settings: for CLint scaled: read-out: predicted intrinsic clearance (pred. CLint); for half-life: t1/2 approach (at 3-4 µM), 1 mg/mL MLM, 2 mM NADPH
# Experimental: Microsome experiments with [^18F]7b in the presence of NADPH were performed according to the procedure recently described by us with slight modifications (Lemm et al. [2022]). […] [^18F]7b dissolved in 0.5% ethanol/PBS (100 µL; 0.2% ethanol final, e.g. 108 MBq/mL or 4.1 µM final) was mixed with PBS (112.5 µL) and murine liver microsomes (MLM, 12.5 µL of 20 mg/mL stock; 1 mg/mL final; Gibco™ Cat. No. MSMCPL, Lot. No. MS053-A) in a 1.5 mL Eppendorf tube and the mixture was warmed for 5 min at 37 °C. Subsequently, NADPH (25 µL of freshly prepared 20 mM solution in PBS, 2 mM final) was added and the mixture was incubated at 37 °C. As a control incubation, the NADPH solution was replaced by PBS. At distinct time points (5, 10, 15, 30, and 60 min), an aliquot (40 µL) was withdrawn and added to ice-cold CH3CN (160 µL). The mixture was vortexed for 30 s, stored on ice for 4 min and centrifuged (5 min at 16,100 × g). The resulting supernatant was used for radio-HPLC and radio-TLC analyses. For radio-HPLC, the Shimadzu Nexera X2 UHPLC system described above including the conditions for analysis was used. Radio-TLC was carried out on reversed-phase TLC plates (ALUGRAM RP-18W/UV254 from Macherey–Nagel, Düren, Germany) with a mobile phase of 40% CH3CN in water containing 0.1% trifluoroacetic acid. Visualization of radioactive spots and subsequent analysis was conducted as described above.
# Testosterone (40 µM final) was used as positive control for the activity of the MLM and was separately treated and analyzed after incubation times of 5, 10, 15, 30, and 60 min as described above (0% ethanol final; HPLC gradient profile: 45% eluent B for 10 min followed by washing of the column with 45% to 95% eluent B in 1 min, 95% eluent B for 5 min, 95% to 45% eluent B in 1 min, 45% eluent B for 8 min; total time of 25 min).
# For that, solutions of [^18F]7b in 0.5% ethanol/PBS (10 µL; 0.1% ethanol final, 17 MBq/mL or 1.14 µM final) were mixed with the respective tenfold concentrated solutions of 7b dissolved in 10% DMSO/PBS (5 µL, 1% DMSO final and 5/10/20/40/80 µM of 7b final), PBS (27.5 µL) and murine liver microsomes (2.5 µL of 20 mg/mL stock) in a 1.5 mL Eppendorf tube and the mixture was warmed for 5 min at 37 °C. Subsequently, NADPH (5 µL of freshly prepared 20 mM solution in PBS, 2 mM final) was added and the mixture was incubated at 37 °C. At distinct time points (5, 10, 15, 20, and 30 min), an aliquot (5 µL) was withdrawn and added to ice-cold CH3CN (40 µL). The subsequent steps were performed as described above including analysis by radio-TLC.
# For the t1/2 approach at n.c.a. level, the obtained fractions of intact [^18F]7b (by radio-HPLC or radio-TLC analysis) were plotted against the time. Nonlinear regression was performed by one-phase decay (equation 1) as implemented in GraphPad Prism (GraphPad Prism 9.5.1.733), which provided the t1/2 values. The fraction at X = 0 min, Y0, was constrained to 1.0.1 Y0=Y0-Plateau×e^-k×X+Plateau
# Subsequently, the intrinsic clearance, CLint (mL*min^−1*kg^−1), was calculated using equation 2 (Obach et al. [1997]; Schneider et al. [2019])2 CLint=ln2/t1/2min×fuinc×1/MLM(mg/mL)×microsomalprotein/liverweightmg/g×liverweight/bodyweightg/kg with the scaling factors of 60.1 mg/g (microsomal protein/liver weight for rats as no value for mice could be found) (Carlile et al. [1997]) and 87.5 g/kg (liver weight/body weight for mice) (Davies and Morris [1993]). The concentration of the MLMs was 1 mg/mL.
# For the Vmax/Km approach, the obtained fractions of intact [^18F]7b (by radio-TLC analysis) were plotted against the time (fraction plot). The concentration plot was obtained by transformation of the fractions into concentrations of 7b by taking the experimentally determined molar activity of [^18F]7b into account (i.e. final concentration of 1.14, 6.16, 11.14, 21.14, 41.14, and 81.14 µM for 7b in the performed experiments). Both plots were analyzed by nonlinear regression according to one-phase decay (equation 1). […]
# [5] = design: method as in Wodtke et al. [2021]; settings: in vitro; ref Wodtke et al. [2021]; cited from earlier work
# [6] = Liver microsome assay; assay type: in vitro ADME, murine; settings: MLM, without prior oxidation (data not shown)
# [7] = tested on: MeWo tumor xenograft (TGase 2 −); assay: Ex vivo biodistribution in tumor-bearing mice (MeWo); design: species or system mice (Rj:NMRI-Foxn1 nu/nu)
# Experimental: as §1
smiles,measurement,setting,value
C=CC(=O)NCCCCC(NC(=O)Cc1ccccc1)C(=O)N1CCN(c2cccc([18F])n2)CC1 (centres unmarked) [[^18F]7b],logD7.4,[1],2.1
same,[^18F]7b remaining intact,[2],≥ 90%
same,tumor/muscle ratio,[3],1.4
same,fraction of intact [^18F]7b,"[4]; MLM, after 30 min in the absence of NADPH, radio-TLC",0.984
same,Vmax,"[4]; Michaelis–Menten analysis, degradation by MLM (1 mg/mL)",0.37 µM/min
same,Vmax,"[4]; Vmax/Km approach, substrate depletion, radio-TLC",0.37 µM*mL*min^-1*mg^-1
same,CLint scaled,"[4]; mouse, liver microsomes, Vmax/Km approach, mice",1610 mL/min/kg
same,half-life,"[4]; mouse, liver microsomes, radio-HPLC",5.7 min
same,half-life,"[4]; mouse, liver microsomes, radio-TLC",7.2 min
same,CLint scaled,"[4]; mouse, liver microsomes, t1/2 approach",772 mL/min/kg
same,Km,"[4]; mouse, liver microsomes, Vmax/Km approach, degradation by MLM, radio-TLC",1.5 µM
same,GSH reactivity,[5],low
same,susceptibility to glucuronidation,[6],not susceptible to glucuronidation
same,tumor/muscle ratio,[7],1.0
